Measurements as given in patent US9746466B2, “Integrated compound discovery systems and methods” (Wake Forest University, priority 2011, dated 2017).

Molecular target: thrombin (Homo sapiens, UniProt P00734)
Experiment: on-chip binding of TAMRA-labeled thrombin to bead-displayed oligonucleotides on Ion Torrent sequencing chips, fluorescence imaging
Conditions: after washing, fluorescence imaging of wells, 20mer GT randomer library doped with thrombin aptamer
From the text: Embodiments of the present invention reduce uncertainty due to amplification-based biases, blind spots and inference-based methods of deconvoluting candidate sequences through direct, on-chip analysis of candidate sequences and their target-binding properties. […] We obtained DNA libraries containing a 20mer GT randomer region flanked by Ion Torrent adaptor sequences (ITD, Coralville, Iowa). Libraries were doped with increasing amounts of the thrombin aptamer (with adaptors). […] The number of full-length reads correlates with the amount of thrombin aptamer doped into GT randomer libraries.

GGTTGGTGTGGTTGG (DNA, backbone not given here) [thrombin aptamer]
intensity of the TAMRA signal: highest
residence time of the TAMRA signal: highest
